Legend:
Taselisib = compound: Cc1nc(-c2cn3c(n2)-c2ccc(-c4cnn(C(C)(C)C(N)=O)c4)cc2OCC3)n(C(C)C)n1 [Taselisib]; settings: max 10 µM
Outline: (§1)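 In 1536-well plates, cancer cell lines in 7.5 μl DMEM/F12 or RPMI with 10% FBS spent 24 hours at 37°C and 5% CO2 and were then dosed for 72 hours with final DMSO typically 0.2%. Viability was read by CellTiter-Glo 2.0 luminescence and scaled between blank-well and DMSO-well means. The single-agent IC50 was fitted from dose responses using a logistic curve in a non-linear mixed effects model, and that logistic curve had two parameters.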

Palbociclib = compound: CC(=O)c1c(C)c2cnc(Nc3ccc(N4CCNCC4)cn3)nc2n(C2CCCC2)c1=O [Palbociclib]; settings: max 10 µM
Outline: as §1

AZD8186 = compound: C[C@@H](Nc1cc(F)cc(F)c1)c1cc(C(=O)N(C)C)cc2c(=O)cc(N3CCOCC3)oc12 [AZD8186]; settings: max 10 µM
Outline: as §1

SRA737 = compound: N#Cc1cnc(Nc2cc(NC[C@H]3CNCCO3)c(C(F)(F)F)cn2)cn1 [SRA737]; settings: max 10 µM
Outline: as §1

SG3199 = compound: CC1=CN2[C@@H](C1)C=NC3=CC(=C(C=C3C2=O)OC)OCCCCCOC4=C(C=C5C(=C4)N=C[C@@H]6CC(=CN6C5=O)C)OC [SG3199]; settings: max 0.001 µM
Outline: as §1

AZD5153 = compound: COc1nnc2ccc(N3CCC(c4ccc(OCCN5CCN(C)C(=O)[C@H]5C)cc4)CC3)nn12 [AZD5153]; settings: max 1 µM
Outline: as §1

AZD2811 = compound: CCN(CCO)CCCOc1ccc2c(Nc3cc(CC(=O)Nc4cccc(F)c4)[nH]n3)ncnc2c1 [AZD2811]; settings: max 1 µM
Outline: as §1

AZD6738 = compound: C[C@@H]1COCCN1C2=NC(=NC(=C2)C3(CC3)[S@](=N)(=O)C)C4=C5C=CNC5=NC=C4 [AZD6738]; settings: max 10 µM
Outline: as §1

AZD5363 = compound: C1CN(CCC1(C(=O)N[C@@H](CCO)C2=CC=C(C=C2)Cl)N)C3=NC=NC4=C3C=CN4 [AZD5363]; settings: max 10 µM
Outline: as §1

Selumetinib = compound: Cn1cnc2c(F)c(Nc3ccc(Br)cc3Cl)c(C(=O)NOCCO)cc21 [Selumetinib]; settings: max 10 µM
Outline: as §1

Savolitinib = compound: C[C@@H](c1ccc2nccn2c1)n1nnc2ncc(-c3cnn(C)c3)nc21 [Savolitinib]; settings: max 1 µM
Outline: as §1

SN-38 = compound: CCc1c2c(nc3ccc(O)cc13)-c1cc3c(c(=O)n1C2)COC(=O)[C@]3(O)CC [SN-38]; settings: max 0.3 µM
Outline: as §1

AZD1775 = compound: C=CCn1c(=O)c2cnc(Nc3ccc(N4CCN(C)CC4)cc3)nc2n1-c1cccc(C(C)(C)O)n1 [AZD1775]; settings: max 3 µM
Outline: as §1

Doxorubicin = compound: COc1cccc2c1C(=O)c1c(O)c3c(c(O)c1C2=O)C[C@@](O)(C(=O)CO)C[C@@H]3O[C@H]1C[C@H](N)[C@H](O)[C@H](C)O1 [Doxorubicin]; settings: max 1 µM
Outline: as §1

AZD1390 = compound: CC(C)n1c(=O)n(C)c2cnc3cc(F)c(-c4ccc(OCCCN5CCCCC5)nc4)cc3c21 [AZD1390]; settings: max 0.3 µM
Outline: as §1

Lapatinib = compound: CS(=O)(=O)CCNCc1ccc(-c2ccc3ncnc(Nc4ccc(OCc5cccc(F)c5)c(Cl)c4)c3c2)o1 [Lapatinib]; settings: max 10 µM
Outline: as §1

Paclitaxel = compound: CC(=O)O[C@H]1C(=O)[C@@]2(C)[C@H]([C@H](OC(=O)c3ccccc3)[C@]3(O)C[C@H](OC(=O)[C@H](O)[C@@H](NC(=O)c4ccccc4)c4ccccc4)C(C)=C1C3(C)C)[C@]1(OC(C)=O)CO[C@@H]1C[C@@H]2O [Paclitaxel]; settings: max 3 µM
Outline: as §1

AZD7648 = compound: Cc1cc2ncnn2cc1Nc1ncc2c(n1)n(C1CCOCC1)c(=O)n2C [AZD7648]; settings: max 10 µM
Outline: as §1

[1] = compound: O=C(Nc1ccc2[nH]nc(-c3ccncc3)c2c1)[C@@H]1CCN(CC(=O)N2CCN(c3ccc(-c4ncccn4)cc3)CC2)C1; settings: max 5 µM
Outline: as §1

Alisertib = compound: COc1cc(Nc2ncc3c(n2)-c2ccc(Cl)cc2C(c2c(F)cccc2OC)=NC3)ccc1C(=O)O [Alisertib]; settings: max 10 µM
Outline: as §1

AZD4320 = compound: CN(CC[C@H](CSC1=CC=CC=C1)NC2=C(C=C(C=C2)S(=O)(=O)NC(=O)C3=CC=C(C=C3)N4CCC(CC4)[C@H](C5=CC=CC=C5C6=CC=C(C=C6)Cl)O)S(=O)(=O)C(F)(F)F)CCO [AZD4320]; settings: max 1 µM
Outline: as §1

AZD5991 = compound: Cc1c2c(nn1C)CSCc1cc(n(C)n1)CSc1cc(c3ccccc3c1)OCCCc1c(C(=O)O)n(C)c3c-2c(Cl)ccc13 [AZD5991]; settings: max 1 µM
Outline: as §1

Olaparib = compound: O=C(c1cc(Cc2n[nH]c(=O)c3ccccc23)ccc1F)N1CCN(C(=O)C2CC2)CC1 [Olaparib]; settings: max 10 µM
Outline: as §1

AZD0156 = compound: CN(C)CCCOc1ccc(-c2ccc3ncc4c(c3c2)n(C2CCOCC2)c(=O)n4C)cn1 [AZD0156]; settings: max 3 µM
Outline: as §1

Etoposide = compound: COc1cc([C@@H]2c3cc4c(cc3[C@@H](O[C@@H]3O[C@@H]5CO[C@@H](C)O[C@H]5[C@H](O)[C@H]3O)[C@H]3COC(=O)[C@H]23)OCO4)cc(OC)c1O [Etoposide]; settings: max 10 µM
Outline: as §1

Carboplatin = compound: C1CC(C1)(C(=O)[O-])C(=O)[O-].N.N.[Pt+2] [Carboplatin]; settings: max 10 µM
Outline: as §1

Prexasertib = compound: COc1cccc(OCCCN)c1-c1cc(Nc2cnc(C#N)cn2)n[nH]1 [Prexasertib]; settings: max 1 µM
Outline: as §1

Venetoclax = compound: CC1(C)CCC(CN2CCN(c3ccc(C(=O)NS(=O)(=O)c4ccc(NCC5CCOCC5)c([N+](=O)[O-])c4)c(Oc4cnc5[nH]ccc5c4)c3)CC2)=C(c2ccc(Cl)cc2)C1 [Venetoclax]; settings: max 1 µM
Outline: as §1

Trametinib = compound: CC(=O)Nc1cccc(-n2c(=O)n(C3CC3)c(=O)c3c(Nc4ccc(I)cc4F)n(C)c(=O)c(C)c32)c1 [Trametinib]; settings: max 1 µM
Outline: as §1

5-Fluorouracil = compound: O=c1[nH]cc(F)c(=O)[nH]1 [5-Fluorouracil]; settings: max 20 µM
Outline: as §1

Crizotinib = compound: C[C@@H](Oc1cc(-c2cnn(C3CCNCC3)c2)cnc1N)c1c(Cl)ccc(F)c1Cl [Crizotinib]; settings: max 10 µM
Outline: as §1

Dasatinib = compound: CC1=C(C(=CC=C1)Cl)NC(=O)C2=CN=C(S2)NC3=CC(=NC(=N3)C)N4CCN(CC4)CCO [Dasatinib]; settings: max 2 µM
Outline: as §1

Gemcitabine = compound: Nc1ccn([C@@H]2O[C@H](CO)[C@@H](O)C2(F)F)c(=O)n1 [Gemcitabine]; settings: max 0.3 µM
Outline: as §1

Gefitinib = compound: COc1cc2ncnc(Nc3ccc(F)c(Cl)c3)c2cc1OCCCN1CCOCC1 [Gefitinib]; settings: max 10 µM
Outline: as §1

MK-2206 = compound: NC1(c2ccc(-c3nc4ccn5c(=O)[nH]nc5c4cc3-c3ccccc3)cc2)CCC1 [MK-2206]; settings: max 10 µM
Outline: as §1

Row | Cell Line | IC50, cell viability 72 h (Taselisib) [nM] | IC50, cell viability 72 h (Palbociclib) [nM] | IC50, cell viability 72 h (AZD8186) [nM] | IC50, cell viability 72 h (SRA737) [nM] | IC50, cell viability 72 h (SG3199) [nM] | IC50, cell viability 72 h (AZD5153) [nM] | IC50, cell viability 72 h (AZD2811) [nM] | IC50, cell viability 72 h (AZD6738) [nM] | IC50, cell viability 72 h (AZD5363) [nM] | IC50, cell viability 72 h (Selumetinib) [nM] | IC50, cell viability 72 h (Savolitinib) [nM] | IC50, cell viability 72 h (SN-38) [nM] | IC50, cell viability 72 h (AZD1775) [nM] | IC50, cell viability 72 h (Doxorubicin) [nM] | IC50, cell viability 72 h (AZD1390) [nM] | IC50, cell viability 72 h (Lapatinib) [nM] | IC50, cell viability 72 h (Paclitaxel) [nM] | IC50, cell viability 72 h (AZD7648) [nM] | IC50, cell viability 72 h [1] [nM] | IC50, cell viability 72 h (Alisertib) [nM] | IC50, cell viability 72 h (AZD4320) [nM] | IC50, cell viability 72 h (AZD5991) [nM] | IC50, cell viability 72 h (Olaparib) [nM] | IC50, cell viability 72 h (AZD0156) [nM] | IC50, cell viability 72 h (Etoposide) [nM] | IC50, cell viability 72 h (Carboplatin) [nM] | IC50, cell viability 72 h (Prexasertib) [nM] | IC50, cell viability 72 h (Venetoclax) [nM] | IC50, cell viability 72 h (Trametinib) [nM] | IC50, cell viability 72 h (5-Fluorouracil) [nM] | IC50, cell viability 72 h (Crizotinib) [nM] | IC50, cell viability 72 h (Dasatinib) [nM] | IC50, cell viability 72 h (Gemcitabine) [nM] | IC50, cell viability 72 h (Gefitinib) [nM] | IC50, cell viability 72 h (MK-2206) [nM]
1 | NCI-H1299 (Non-Small Cell Lung Carcinoma) | > 10000 | > 10000 | > 10000 | > 10000 | > 1 | 184 | > 1000 | 9870 | > 10000 | > 10000 | > 1000 | > 300 | 364 | 880 | > 300 | > 10000 | 134 | > 10000 | > 5000 | > 10000 | > 1000 | > 1000 | > 10000 | > 3000 | > 10000 | > 10000 | 100 | > 1000 | 912 | > 20000 | > 10000 | 1570 | 239 | > 10000 | > 10000
2 | NCI-H2595 (Mesothelioma) | > 10000 | > 10000 | > 10000 | > 10000 | > 1 | > 1000 | > 1000 | > 10000 | > 10000 | > 10000 | > 1000 | > 300 | > 3000 | > 1000 | > 300 | > 10000 | 1280 | > 10000 | > 5000 | > 10000 | > 1000 | > 1000 | > 10000 | > 3000 | > 10000 | > 10000 | > 1000 | > 1000 | > 1000 | > 20000 | > 10000 | > 2000 | > 300 | > 10000 | > 10000
3 | OCI-AML2 (Acute Myeloid Leukemia) | > 10000 | 3170 | > 10000 | 1170 | > 1 | 43 | 341 | 965 | 7580 | 36.6 | > 1000 | 4.7 | 358 | 12.3 | > 300 | > 10000 | 4.45 | > 10000 | 51.5 | 1340 | 6.33 | 193 | 6690 | > 3000 | 503 | > 10000 | 12.4 | 7.92 | < 1 | 1200 | 2780 | > 2000 | 7.97 | > 10000 | > 10000

— the supplement of paper PMC11061612
